Experimental findings from US8399444B2, “Bicyclic imidazole as DP1 receptor antagonists” (GlaxoSmithKline Intellectual Property Development Ltd., priority 2008, dated 2013) are described below.

Counter-ions that a name gives are not always drawn.

For this test, the target named is T1, Prostanoid DP1 receptor (Homo sapiens, UniProt Q13258).
T1 construct: expressed in transfected cells; host or cells: CHO K1
T1 sequence (Q13258 1-359): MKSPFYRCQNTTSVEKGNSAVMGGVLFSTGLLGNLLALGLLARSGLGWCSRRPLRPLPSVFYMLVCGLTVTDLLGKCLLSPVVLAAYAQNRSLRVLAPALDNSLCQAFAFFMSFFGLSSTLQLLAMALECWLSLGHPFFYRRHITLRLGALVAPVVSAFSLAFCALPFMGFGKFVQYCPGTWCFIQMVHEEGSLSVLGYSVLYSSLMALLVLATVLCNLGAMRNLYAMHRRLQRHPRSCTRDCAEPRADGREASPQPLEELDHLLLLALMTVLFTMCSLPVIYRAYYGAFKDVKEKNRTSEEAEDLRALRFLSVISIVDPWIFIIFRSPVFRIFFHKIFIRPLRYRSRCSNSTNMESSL
The test can be described thus: Measurement of cAMP using TR-FRET LANCE assay: Prostanoid DP1. In kind it is cell-based. To be noted: CHO cells expressing DP1 receptor, antagonism of PGD2 (EC80) cAMP response; read-out: pKi value (converted). The protocol: CHO K1 cells, stably expressing the Prostanoid DP1 receptor, were maintained in culture in DMEM/F12, supplemented with 5% FBS, 2 mM L-glutamine, 400 μg/mL hygromycin B in 95%: 5% air: CO2 at 37° C. Following harvest from culture, cells were centrifuged at 250 g at 4° C. for 10 minutes and re-suspended in ice cold dialysed FCS. Once the cells were in mono-suspension they were slowly mixed with an equal volume of ice cold 80% dialysed FCS: 20% DMSO (pre-mixed and chilled several hours earlier). The cells were then aliquoted into 1 mL tubes within a 96 well block (pre-cooled to 4° C.). Once sealed, the tubes were frozen in a controlled rate freezer. The frozen cells were then transferred to a −140° C. freezer for long term storage.
Measurement of cAMP Using TR-FRET LANCE™ Assays: Prostanoid DP1
The potency of the compounds were determined using a LANCE™ cAMP assay kit as per the kit instructions. Briefly, CHO cells expressing DP1 receptor were thawed at 37° C., diluted in PBS and centrifuged at 1000 RPM for 5 minutes. Cells were then re-suspended (2 million cells/mL) in stimulation buffer (HBSS containing 0.01% BSA, 500 μM FAC IBMX, 5 mmol/L HEPES adjusted to pH 7.4 with KOH.
Briefly, cells were added (10,000 cells/well at 5 μL addition) to low volume white Greiner polypropylene 384-well plate assay plates containing 0.1 μl test compound. Following a 15 minute incubation at room temperature, 5 μl of antibody solution (stimulation buffer containing Alexia fluor 647) containing PGD2 at twice the determined EC80 concentration was added. Plates were incubated for a further 30 minutes at room temperature then detection mixture was added (kit components; detection buffer, europiumW8044-labelled streptavidin and biotin cAMP at 10 μl/well). Plates were covered and incubated the room temperature for 1 hour before reading on a Viewlux Microplate Imager using TR-FRET label settings.
All compounds were dissolved in DMSO at a concentration of 10 mM and were prepared in 100% DMSO using a 1 in 4 dilution step to provide 11-point concentration—response curves. The dilutions were transferred to the assay plates ensuring that the DMSO concentration was constant across the plate at 1% for all assays.
All data were normalised to the mean of 16 high and 16 low control wells on each plate. A four parameter curve fit of the following form was then applied.
Where a is the minimum, b is the Hill slope, c is the XC50, and d is the maximum. Data are presented as the mean pXC50 (negative log 10 of the molar XC50) with the standard deviation (SD) of number of tests in the experiments.
For orientation: Time-resolved FRET reads energy transfer from a long-lived donor to a nearby acceptor.
With `CC(C)c1nc2c(n1Cc1ccc(Cl)c(Cl)c1)C(OCC(=O)O)CCCC2` (stereo not shown) [Example 34, {[3-[(3,4-dichlorophenyl)methyl]-2-(1-methylethyl)-3,4,5,6,7,8-hexahydrocyclohepta[d]imidazol-4-yl]oxy}acetic acid ammonia salt], the Ki is at most 10 nM.

On to `CC(C)c1nc2c(n1Cc1ccc(Cl)c(Cl)c1)C(CC(=O)O)CCCC2` (stereo not shown) [Example 3, [3-[(3,4-dichlorophenyl)methyl]-2-(1-methylethyl)-3,4,5,6,7,8-hexahydrocyclohepta[d]imidazol-4-yl]acetic acid ammonia salt], for which the Ki is at most 10 nM.

Turning to `CC(C)c1nc2c(n1Cc1ccc(Cl)cc1)C(CC(=O)O)CCC2` (single isomer, unassigned; isomer 2) [Example 32, (−)-[1-[(4-chlorophenyl)methyl]-2-(1-methylethyl)-4,5,6,7-tetrahydro-1H-benzimidazol-7-yl]acetic acid (Isomer 2)], the Ki was at most 10 nM.

For the molecule `CC(C)c1nc2c(n1Cc1ccc(Cl)c(Cl)c1)C(CC(=O)O)CC2` (single isomer, unassigned; isomer 2) [Example 11, [3-[(3,4-dichlorophenyl)methyl]-2-(1-methylethyl)-3,4,5,6-tetrahydrocyclopenta[d]imidazol-4-yl]acetic acid ammonia salt (Isomer 2)], the Ki is at most 100 nM.

Regarding `CC(C)c1nc2c(n1Cc1ccc(Cl)c(Cl)c1)C(OCC(=O)O)CCCC2` (single isomer, unassigned; isomer 1) [Example 36, {[3-[(3,4-dichlorophenyl)methyl]-2-(1-methylethyl)-3,4,5,6,7,8-hexahydrocyclohepta[d]imidazol-4-yl]oxy}acetic acid ammonia salt (Isomer 1)], the Ki was at most 100 nM.

In the case of `CC(C)c1nc2c(n1Cc1ccc(Cl)c(Cl)c1)C(CC(=O)O)CCC2` (stereo not shown) [Example 19, [1-[(3,4-dichlorophenyl)methyl]-2-(1-methylethyl)-4,5,6,7-tetrahydro-1H-benzimidazol-7-yl]acetic acid], the Ki was at most 10 nM.

On to `O=C(O)CC1CCCc2nc(C3CCCC3)n(Cc3ccc(Cl)cc3)c21` (stereo not shown) [Example 22, {1-[(4-chlorophenyl)methyl]-2-cyclopentyl-4,5,6,7-tetrahydro-1H-benzimidazol-7-yl}acetic acid ammonia salt], for which the Ki was at most 100 nM.

As to `CC(C)c1nc2c(n1[C@H](C)c1ccccc1)C(CC(=O)O)CCC2` (stereo partly drawn) [Example 31, {2-(1-methylethyl)-1-[(1R)-1-phenylethyl]-4,5,6,7-tetrahydro-1H-benzimidazol-7-yl}acetic acid ammonia salt], the Ki is at most 100 nM.

Turning to `CC(C)(C)c1nc2c(n1Cc1ccc(Cl)cc1)C(CC(=O)O)CCC2` (stereo not shown) [Example 23, [1-[(4-chlorophenyl)methyl]-2-(1,1-dimethylethyl)-4,5,6,7-tetrahydro-1H-benzimidazol-7-yl]acetic acid, formic acid salt], the Ki was at most 100 nM.

As to `CC(C)c1nc2c(n1Cc1ccc(Cl)cc1)C(CC(=O)O)CC2` (stereo not shown) [Example 7, [3-[(4-chlorophenyl)methyl]-2-(1-methylethyl)-3,4,5,6-tetrahydrocyclopenta[d]imidazol-4-yl]acetic acid ammonia salt], the Ki was at most 100 nM.

In the case of `CC(C)c1nc2c(n1Cc1ccc(Cl)cc1)C(CC(=O)O)CCC2` (single isomer, unassigned; isomer 2) [Example 17, (−)-[1-[(4-chlorophenyl)methyl]-2-(1-methylethyl)-4,5,6,7-tetrahydro-1H-benzimidazol-7-yl]acetic acid ammonia salt (Isomer 2)], the Ki was at most 10 nM.

Regarding `CC(C)c1nc2c(n1Cc1ccc(Cl)cc1Cl)C(CC(=O)O)CCC2` (stereo not shown) [Example 18, [1-(2,4-dichlorobenzyl)-2-isopropyl-4,5,6,7-tetrahydro-1H-benzimidazol-7-yl]acetic acid ammonia salt], the Ki is at most 100 nM.

As to `CC(C)c1nc2c(n1Cc1ccc(Cl)c(Cl)c1)C(CC(=O)O)CCCC2` (single isomer, unassigned; isomer 1) [Example 4, (+)-[3-[(3,4-dichlorophenyl)methyl]-2-(1-methylethyl)-3,4,5,6,7,8-hexahydrocyclohepta[d]imidazol-4-yl]acetic acid (isomer 1)], the Ki was at most 10 nM.

`CC(C)c1nc2c(n1[C@H](C)c1ccc(Cl)cc1)C(CC(=O)O)CCC2` (stereo partly drawn) [Example 33, [1-[(1R)-1-(4-chlorophenyl)ethyl]-2-(1-methylethyl)-4,5,6,7-tetrahydro-1H-benzimidazol-7-yl]acetic acid ammonia salt]: the Ki was at most 100 nM.

With `CC(C)c1nc2c(n1Cc1ccc(Cl)c(Cl)c1)C(CC(=O)O)CCCC2` (single isomer, unassigned; isomer 2) [Example 5, [3-[(3,4-dichlorophenyl)methyl]-2-(1-methylethyl)-3,4,5,6,7,8-hexahydrocyclohepta[d]imidazol-4-yl]acetic acid (isomer 2)], the Ki was at most 100 nM.

Consider `CC(C)c1nc2c(n1Cc1ccc(Cl)cc1)C(OCC(=O)O)CCCC2` (stereo not shown) [Example 2], for which the Ki was at most 100 nM.

On to `CC(C)(C)c1nc2c(n1Cc1ccc(Cl)cc1)C(CC(=O)O)CC2` (stereo not shown) [Example 14, [3-[(4-chlorophenyl)methyl]-2-(1,1-dimethylethyl)-3,4,5,6-tetrahydrocyclopenta[d]imidazol-4-yl]acetic acid ammonia salt], for which the Ki was at most 100 nM.

Take `CC(C)c1nc2c(n1Cc1ccc(Cl)c(Cl)c1)C(OCC(=O)O)CCCC2` (single isomer, unassigned; isomer 2) [Example 37, {[3-[(3,4-dichlorophenyl)methyl]-2-(1-methylethyl)-3,4,5,6,7,8-hexahydrocyclohepta[d]imidazol-4-yl]oxy}acetic acid ammonia salt (Isomer 2)]: the Ki was at most 10 nM.

Turning to `CC(C)c1nc2c(n1Cc1ccc(Cl)cc1)C(OCC(=O)O)CCC2` (single isomer, unassigned; isomer 2) [Example 26, {[1-[(4-chlorophenyl)methyl]-2-(1-methylethyl)-4,5,6,7-tetrahydro-1H-benzimidazol-7-yl]oxy}acetic acid formic acid salt (isomer 2)], the Ki is at most 10 nM.

Turning to `CC(C)c1nc2c(n1Cc1ccc(Cl)cc1)C(CC(=O)O)CCC2` (stereo not shown) [Example 15, [1-[(4-chlorophenyl)methyl]-2-(1-methylethyl)-4,5,6,7-tetrahydro-1H-benzimidazol-7-yl]acetic acid], the Ki was at most 10 nM.

With `CC(C)c1nc2c(n1Cc1ccc(Cl)cc1)C(CC(=O)O)CCCC2` (stereo not shown) [Example 1, [3-[(4-chlorophenyl)methyl]-2-(1-methylethyl)-3,4,5,6,7,8-hexahydrocyclohepta[d]imidazol-4-yl]acetic acid], the Ki was at most 10 nM.

On to `CC(C)c1nc2c(n1Cc1ccc(Cl)cc1)C(OCC(=O)O)CCC2` (stereo not shown) [Example 24, {[1-[(4-chlorophenyl)methyl]-2-(1-methylethyl)-4,5,6,7-tetrahydro-1H-benzimidazol-7-yl]oxy}acetic acid, formic acid salt], for which the Ki is at most 100 nM.

With `CC(C)c1nc2c(n1Cc1ccc(Cl)c(Cl)c1)C(OCC(=O)O)CCCC2` (stereo not shown) [Example 35, {[3-[(3,4-dichlorophenyl)methyl]-2-(1-methylethyl)-3,4,5,6,7,8-hexahydrocyclohepta[d]imidazol-4-yl]oxy}acetic acid hydrochloride], the Ki was at most 100 nM.

Turning to `CC(C)c1nc2c(n1Cc1ccc(Cl)c(Cl)c1)C(CC(=O)O)CC2` (stereo not shown) [Example 9, [3-[(3,4-dichlorophenyl)methyl]-2-(1-methylethyl)-3,4,5,6-tetrahydrocyclopenta[d]imidazol-4-yl]acetic acid ammonia salt], the Ki was at most 10 nM.

With `CC(C)(C)c1nc2c(n1Cc1ccc(Cl)cc1)C(CC(=O)O)CCCC2` (stereo not shown) [Example 6, [3-[(4-chlorophenyl)methyl]-2-(1,1-dimethylethyl)-3,4,5,6,7,8-hexahydrocyclohepta[d]imidazol-4-yl]acetic acid], the Ki was at most 10 nM.
